Data set [1] has as its target T1, Programmed cell death protein 1/Programmed cell death 1 ligand 1 (Homo sapiens, UniProt Q15116+Q9NZQ7). Kind of data set: Inhibition of PD-I/PD-L1 interaction (unknown origin). It is filed as protein-complex assay.
Data set [2] is described as follows: Oral bioavailability in mouse. Format: ADME, organism-based. The conditions noted are these: in vivo.
The target of data set [3] is Programmed cell death 1 ligand 1 (Homo sapiens) (UniProt Q9NZQ7). Nature of the data set: Induction of PD-L1 degradation in human NCI-H292 at 20 uM relative to control. Format: cell-based.
The next data set concerns NCI-H292. Nature of the data set: Cytotoxicity against human NCI-H292 cells assessed as inhibition of cell growth. It is filed as functional, cell-based.
Data set [4] deals with T1, Programmed cell death protein 1/Programmed cell death 1 ligand 1. Kind of data set: Inhibition of PD-1/PD-L1 interaction (unknown origin) by HTRF assay. Format: protein-complex assay.
Data set [5] shares this target. Kind of data set: Inhibition of PD-1/PD-L1 interaction (unknown origin) at 25 uM by AlphaLISA assay relative to control. It is filed as protein-complex assay.
The target is the same in data set [6]. Kind of data set: Inhibition of biotinylated human PD-I/human PD-L1 interaction at 100 uM incubated for 2 hrs by ELISA relative to control. It is filed as protein-complex assay.
The target is the same in data set [7]. Nature of the data set: Inhibition of biotinylated human PD-I /His-tagged PD-L1 (unknown origin) interaction incubated for 90 mins in dark condition by AlphaLISA assay. It is filed as protein-complex assay.
For data set [8], the target named is Programmed cell death 1 ligand 1 (Homo sapiens) (UniProt Q9NZQ7). Kind of data set: Inhibition of human recombinant extracellular domain PD-L1 in human DU-145 cells incubated for 1 hr relative to control. Format: cell-based. The settings on record: concentration not given here.
The target in data set [9] is T2, PD1-PDL2 (Homo sapiens, UniProt Q15116+Q9BQ51). Nature of the data set: Inhibition of PD-I/PD-L2 interaction (unknown origin) expressed in human […] cells. Format: cell-based.
For data set [10], the target named is T2, PD1-PDL2. Nature of the data set: Inhibition of PD-I/PD-L2 interaction (unknown origin) expressed in HEK293 cells. It is filed as cell-based.
The target of data set [11] is T1, Programmed cell death protein 1/Programmed cell death 1 ligand 1. Kind of data set: Inhibition of PD-I/PD-L1 interaction (unknown origin) by ELISA. It is filed as protein-complex assay.
Data set [12] in a line: Cytotoxicity against human MDA-MB-231 cells assessed as reduction in cell growth by MTT assay. It is filed as toxicity, cell-based.
For data set [13], the target named is T1, Programmed cell death protein 1/Programmed cell death 1 ligand 1. Kind of data set: Inhibition of PD-I/PD-L1 interaction (unknown origin) by HTRF assay. Format: protein-complex assay.
For data set [14] the target is unchanged. Kind of data set: Inhibition of Fc-fused recombinant human PD-I/His-tagged recombinant human PD-L1 interaction incubated overnight by HTRF assay. It is filed as protein-complex assay.
In data set [15] the test system is B16-F10. Kind of data set: Antitumor activity against mouse B16-F10 expressing human PD-L1 allografted in C57BL/6 mouse assessed as inhibition of tumor growth at 10 mg/kg, ip administered every 2 days for 24 days relative to control. The settings on record: B16-F10, 48 h, time 2 day. It is filed as functional.
The subject of data set [16] is B16-F10. Nature of the data set: Antitumor activity against mouse B16-F10 expressing human PD-L1 allografted in C57BL/6 mouse assessed as inhibition of tumor growth at 10 mg/kg, ip administered every 3 days for 24 days relative to control. Format: functional. The settings on record: B16-F10, 72 h, time 3 day.

Residues, ends and D or L forms follow the SMILES beside them.

T1 sequence (Q15116 whole entry): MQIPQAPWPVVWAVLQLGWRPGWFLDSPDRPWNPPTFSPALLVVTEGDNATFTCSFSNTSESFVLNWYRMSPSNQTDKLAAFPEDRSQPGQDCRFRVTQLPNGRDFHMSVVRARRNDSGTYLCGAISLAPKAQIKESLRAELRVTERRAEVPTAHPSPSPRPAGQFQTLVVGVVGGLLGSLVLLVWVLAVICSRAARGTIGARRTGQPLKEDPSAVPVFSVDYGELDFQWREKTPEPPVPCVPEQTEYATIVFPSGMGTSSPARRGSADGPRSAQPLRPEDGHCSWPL
T1 sequence (Q9NZQ7 whole entry): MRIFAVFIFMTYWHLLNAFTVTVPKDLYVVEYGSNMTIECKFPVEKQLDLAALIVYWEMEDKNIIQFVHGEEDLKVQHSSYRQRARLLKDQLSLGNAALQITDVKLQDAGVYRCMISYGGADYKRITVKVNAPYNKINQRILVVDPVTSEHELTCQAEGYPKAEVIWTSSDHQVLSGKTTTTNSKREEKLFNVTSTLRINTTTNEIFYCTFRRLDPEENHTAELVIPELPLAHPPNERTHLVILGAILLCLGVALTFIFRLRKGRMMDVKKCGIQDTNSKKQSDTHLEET
T2 sequence (Q15116 whole entry): as the sequence (Q15116 whole entry) above
T2 sequence (Q9BQ51 whole entry): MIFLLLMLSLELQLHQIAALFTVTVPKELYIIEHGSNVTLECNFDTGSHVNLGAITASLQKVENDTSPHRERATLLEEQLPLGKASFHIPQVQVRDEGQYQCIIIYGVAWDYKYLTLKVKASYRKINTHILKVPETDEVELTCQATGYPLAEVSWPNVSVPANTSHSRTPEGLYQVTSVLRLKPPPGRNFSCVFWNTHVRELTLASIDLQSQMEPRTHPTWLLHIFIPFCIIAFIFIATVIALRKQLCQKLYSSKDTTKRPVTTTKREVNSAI
Chain of Programmed cell death 1 ligand 1 (Homo sapiens) (Q9NZQ7 whole entry, the tested form may be a part): as the sequence (Q9NZQ7 whole entry) above

The compound `Cc1c(COc2ccc(CN[C@H](CO)C(=O)O)c(OCc3cccc(C#N)c3)c2)cccc1-c1ccc2c(c1)OCCO2` came in with an IC50 in data set [1] of 0.00225 µM.

The compound `CC1=C(C(=O)OCc2ccccc2)C(CC(C)(C)C)C(C(=O)OCc2ccccc2)=C(C)N1` came in with a bioavailability in data set [2] of 25%. The compound further returned an Activity in data set [3] of 67%. The half-maximal inhibitory concentration (IC50) in the data set on NCI-H292 came to 62 µM.

Compound `Cc1cc(/C=C/c2ccc3cc(N(C)C)ccc3[n+]2C)c(C)n1-c1ccccc1` gave an IC50 in data set [4] of 30 µM. Also, the inhibition in data set [5] stood at 44.5%.

In data set [6], `O=C(c1cc2ccccc2[nH]1)N1CCN(Cc2csc(-c3ccccc3)n2)CC1` registered an inhibition of 21%.

As for `CO[C@H]1/C=C/O[C@@]2(C)Oc3c(C)c(O)c4c(c3C2=O)C2=NC3(CCN(CC(C)C)CC3)NC2=C(NC(=O)/C(C)=C\C=C\[C@H](C)[C@H](O)[C@@H](C)[C@@H](O)[C@@H](C)[C@H](OC(C)=O)[C@@H]1C)C4=O` [RIFABUTIN], the IC50 in data set [7] was determined as 25 µM.

As for `CC(C)C[C@H](NC(=O)[C@H](CC(N)=O)NC(=O)[C@H](Cc1c[nH]c2ccccc12)NC(=O)[C@@H](NC(=O)[C@H](Cc1ccc(O)cc1)NC(=O)[C@H](Cc1ccc(O)cc1)NC(=O)[C@H](CO)NC(=O)[C@H](CCCNC(=N)N)NC(=O)[C@H](Cc1c[nH]cn1)NC(=O)[C@@H](N)Cc1c[nH]c2ccccc12)[C@@H](C)O)C(=O)N[C@@H](CC(N)=O)C(=O)N[C@H](C(=O)O)[C@@H](C)O` (H-WHRSYYTWNLNT-OH), the inhibition in data set [8] is 80%.

As for `CC[C@H](C)[C@H](NC(=O)[C@H](CCC(N)=O)NC(=O)[C@H](C)NC(=O)[C@H](CCCCN)NC(=O)[C@@H]1CCCN1C(=O)[C@H](C)NC(=O)[C@H](CC(C)C)NC(=O)[C@H](CCC(N)=O)NC(=O)[C@@H](NC(=O)[C@@H](NC(=O)[C@H](CCCNC(=N)N)NC(=O)[C@H](Cc1ccccc1)NC(=O)[C@H](CCCCNC(=O)[C@H](Cc1ccccc1)NC(=O)[C@H](CO)NC(=O)[C@H](CCC(=O)O)NC(=O)[C@H](CO)NC(=O)[C@@H](NC(=O)[C@H](CC(N)=O)NC(=O)[C@@H](N)CO)[C@@H](C)O)NC(=O)[C@H](Cc1ccccc1)NC(=O)[C@H](CO)NC(=O)[C@H](CCC(=O)O)NC(=O)[C@H](CO)NC(=O)[C@@H](NC(=O)[C@H](CC(N)=O)NC(=O)[C@@H](N)CO)[C@@H](C)O)C(C)C)[C@@H](C)O)C(=O)N[C@@H](CCCCN)C(=O)N[C@@H](CCC(=O)O)C(N)=O`, the results for the half-maximal effective concentration (EC50) on PD1-PDL2 [9] and on PD1-PDL2 [10] were 0.00041 µM and 0.00072 µM, respectively.

As for `CSCC[C@H](NC(=O)[C@H](CC(=O)O)NC(=O)[C@H](Cc1ccccc1)NC(=O)[C@H](CCCNC(=N)N)NC(=O)[C@H](Cc1ccc(O)cc1)NC(=O)[C@H](CC(=O)O)NC(=O)[C@H](CCCNC(=N)N)NC(=O)[C@H](Cc1c[nH]c2ccccc12)NC(=O)[C@@H](NC(=O)[C@H](Cc1c[nH]c2ccccc12)NC(=O)[C@@H](N)CCCNC(=N)N)C(C)C)C(=O)NCC(=O)N[C@@H](Cc1ccccc1)C(=O)N[C@@H](CC(=O)O)C(=O)N[C@@H](Cc1c[nH]c2ccccc12)C(=O)N[C@H](C(=O)N[C@@H](Cc1c[nH]c2ccccc12)C(=O)N[C@@H](CCC(=O)O)C(=O)O)C(C)C` (H-RWVWRDYRFDMGFDWVWE-OH), the half-inhibitory concentration (IC50) in data set [11] was found to be 0.6 µM.

With `COc1nc(-c2cccc(-c3ccccc3F)c2C)ccc1CNCCC(N)=O`, the half-maximal effective concentration (EC50) in data set [12] came to 11.1 µM. In data set [13], this compound registered an IC50 of 0.0009 µM.

As for `Cc1c(NC(=O)c2ccc(CNCCO)cn2)cccc1-c1cccc(NC(=O)c2ccc(CNCCO)cn2)c1C`, in [14], the half-maximal inhibitory concentration (IC50) was […].

On to `NC(=O)c1ccccc1NC(=O)c1ccc(-c2ccccc2)cc1`, for which the values for the inhibition in vivo at 10 mg/kg in the data set on B16-F10 [15] and in the data set with B16-F10 [16] were 62% and 66%, respectively.

The values above are taken from ChEMBL document CHEMBL5370551, “Inside PD-1/PD-L1,2 with their inhibitors” (Eur J Med Chem, 2023).
